Measured values as given in US12398178B2, “Collections of peptides, peptide agents, and methods of use thereof” (Parabilis Medicines, Inc., priority 2018, dated 2025).
Starred links: 1 amine or outer side, 2 acyl side, 3 side chain; linkers in the order of their positions; H or OH if unused. Positions of bridges follow the written chain, without caps; N, C: chain ends. Residues, ends and D or L forms follow the SMILES beside them. X4 = O=C(C[*:1])O[C@H]1CC[C@@H](OC(=O)C[*:2])CC1; X9 = O=C(C[*:1])O[C@@H]1CCC[C@H](OC(=O)C[*:2])C1; X5 = CN(C(=O)C[*:1])c1ccc(N(C)C(=O)C[*:2])cc1; X6 = O=C(C[*:1])Nc1cc(Cl)c(NC(=O)C[*:2])cc1Cl; X8 = COc1cc(NC(=O)C[*:2])c(OC)cc1NC(=O)C[*:1]; X7 = O=C(C[*:1])Nc1cc(F)c(NC(=O)C[*:2])cc1F; X3 = O=C(C[*:1])Nc1ccccc1NC(=O)C[*:2]

Key:
[1] = Measurement of LogD (CHI logD by HPLC); type: physicochemical; details: CHI log D, 50 mM ammonium acetate pH 7.4 / acetonitrile gradient, C-18 column, 25° C.
Procedure: Measurement of LogD: LogD values were measured on a Agilent 1260 HPLC with UV detector (254, 220 nm), using a Gemini NX C-18 50×3 mm column (Phenomenex) with a 6-minute 0-100% mobile phase gradient of A) 50 mM ammonium acetate pH 7.4 and B) Acetonitrile at 25° C. with a flow rate of 1 mL/min and injection volume of 3-5 uL.

[2] = molecular target: T1, full-length β-Catenin (Homo sapiens, UniProt P35222); assay: Competition fluorescence polarization assay for binding to beta-catenin (displacement of FITC labeled Axin peptide probe); details: 15 nM full-length β-Catenin, 20 nM FITC labeled Axin peptide probe, 3-fold serial dilution from 5 μM; read-out: bCat EC50
T1 construct: Probe solution (15 nM full-length β-Catenin, 20 nM FITC labeled Axin peptide in buffer)
T1 sequence (P35222 1-781): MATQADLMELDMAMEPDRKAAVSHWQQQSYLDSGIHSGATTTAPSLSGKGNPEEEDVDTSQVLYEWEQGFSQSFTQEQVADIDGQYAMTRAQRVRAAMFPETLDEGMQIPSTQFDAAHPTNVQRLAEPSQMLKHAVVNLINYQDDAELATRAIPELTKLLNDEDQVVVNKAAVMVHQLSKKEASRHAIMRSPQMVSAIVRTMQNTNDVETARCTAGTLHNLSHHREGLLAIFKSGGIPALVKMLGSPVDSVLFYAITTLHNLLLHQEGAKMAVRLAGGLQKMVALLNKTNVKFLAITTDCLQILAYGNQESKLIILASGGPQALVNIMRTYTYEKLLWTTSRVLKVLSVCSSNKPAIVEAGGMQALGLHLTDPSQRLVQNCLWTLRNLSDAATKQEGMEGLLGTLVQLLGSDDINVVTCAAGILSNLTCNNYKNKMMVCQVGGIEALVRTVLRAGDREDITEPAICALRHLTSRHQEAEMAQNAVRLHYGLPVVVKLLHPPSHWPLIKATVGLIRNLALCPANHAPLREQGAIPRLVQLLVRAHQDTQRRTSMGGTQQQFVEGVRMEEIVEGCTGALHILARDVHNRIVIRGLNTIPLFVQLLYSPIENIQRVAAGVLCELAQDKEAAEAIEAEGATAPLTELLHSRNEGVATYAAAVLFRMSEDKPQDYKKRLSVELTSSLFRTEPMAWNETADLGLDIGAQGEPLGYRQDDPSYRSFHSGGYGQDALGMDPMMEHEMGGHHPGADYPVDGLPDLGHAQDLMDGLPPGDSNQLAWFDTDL
Procedure: Peptide assessment: In one assay for assessing binding to beta-catenin, peptide solutions were prepared in buffer (50 mM Tris pH 8.0, 250 mM NaCl, 2% glycerol, 0.5 mM EDTA, 0.02% w/v sodium azide) using a 3-fold serial dilution from 5 μM. Probe solution (15 nM full-length β-Catenin, 20 nM FITC labeled Axin peptide in buffer ([FAM-PEG1-RRWPR(S5)ILD(S5)HVRRVWR (SEQ ID NO: 44)] where the two S5 residues are stapled, as reported in: Proc Natl Acad Sci USA. 2012 Oct. 30; 109(44):17942-7)) was prepared and incubated for 5 minutes, then 40 μL per well plated in a black polystyrene 384-well plate (Corning). Equal volume of the titrated peptide was added to the plate and incubated protected from light for 15 minutes prior to read. Reads were performed on a Spectramax M5 (Molecular Devices) in duplicate.

SMILES | chromatographic logD [1] | EC50 [2] [µM]
CC(C)C[C@@H]1NC(=O)[C@H](C)NC(=O)[C@H](C)NC(=O)[C@H](Cc2c[nH]c3ccccc23)NC(=O)[C@H](CCC(=O)O)NC(=O)[C@@H](NC(=O)[C@H](CCCNC(=N)N)NC(=O)[C@H](Cc2c[nH]cn2)NC(=O)[C@@H](NC(=O)[C@H](C)NC(=O)[C@@H]2CCCN2C(=O)[C@H](CC(=O)O)NC(=O)[C@H](C)N)[C@@H](C)O)CSCC(=O)N(C)c2ccc(cc2)N(C)C(=O)CSC[C@@H](C(=O)N[C@@H](CCC(=O)O)C(=O)N[C@@H](CC(C)C)C(=O)N[C@H](C(N)=O)C(C)C)NC(=O)[C@H](Cc2c[nH]cn2)NC1=O [Compound 31] | 0.68 | > 10
COc1cc2c(OC)cc1NC(=O)CSC[C@@H](C(=O)N[C@@H](CCC(=O)O)C(=O)N[C@@H](CC(C)C)C(=O)N[C@H](C(N)=O)C(C)C)NC(=O)[C@H](Cc1c[nH]cn1)NC(=O)[C@H](CC(C)C)NC(=O)[C@H](C)NC(=O)[C@H](C)NC(=O)[C@H](Cc1c[nH]c3ccccc13)NC(=O)[C@H](CCC(=O)O)NC(=O)[C@@H](NC(=O)[C@H](CCCNC(=N)N)NC(=O)[C@H](Cc1c[nH]cn1)NC(=O)[C@@H](NC(=O)[C@H](C)NC(=O)[C@@H]1CCCN1C(=O)[C@H](CC(=O)O)NC(=O)[C@H](C)N)[C@@H](C)O)CSCC(=O)N2 [Compound 34] | 0.63 | 
CC(C)C[C@@H]1NC(=O)[C@H](C)NC(=O)[C@H](C)NC(=O)[C@H](Cc2c[nH]c3ccccc23)NC(=O)[C@H](CCC(=O)O)NC(=O)[C@@H](NC(=O)[C@H](CCCNC(=N)N)NC(=O)[C@H](Cc2c[nH]cn2)NC(=O)[C@@H](NC(=O)[C@H](C)NC(=O)[C@@H]2CCCN2C(=O)[C@H](CC(=O)O)NC(=O)[C@H](C)N)[C@@H](C)O)CSCC(=O)Nc2ccccc2NC(=O)CSC[C@@H](C(=O)N[C@@H](CCC(=O)O)C(=O)N[C@@H](CC(C)C)C(=O)N[C@H](C(N)=O)C(C)C)NC(=O)[C@H](Cc2c[nH]cn2)NC1=O [Compound 35] | 0.77 | > 10
CC[C@H](C)[C@@H]1NC(=O)[C@H](CC(C)C)NC(=O)[C@H](C)NC(=O)[C@H](C)NC(=O)[C@H](Cc2c[nH]cn2)NC(=O)[C@H](CCC(=O)O)NC(=O)[C@@H](NC(=O)[C@H](C)NC(=O)[C@H](Cc2c[nH]c3ccccc23)NC(=O)[C@H](CC(C)C)NC(=O)[C@H](C)NC(=O)[C@@H]2CCCN2C(=O)[C@H](CC(=O)O)NC(=O)[C@H](C)N)CSCC(=O)Nc2cc(Cl)c(cc2Cl)NC(=O)CSC[C@@H](C(=O)N[C@@H](CCC(=O)O)C(=O)N[C@H](C(=O)N[C@@H](CCC(N)=O)C(N)=O)[C@@H](C)O)NC1=O [Compound 42] (H-ADPALWACEHAALICETQ-NH2; linker 8-15 via X6; N-terminus and C-terminus assumed) | 0.84 | 
CC[C@H](C)[C@@H]1NC(=O)[C@H](CC(C)C)NC(=O)[C@H](C)NC(=O)[C@H](C)NC(=O)[C@H](Cc2c[nH]cn2)NC(=O)[C@H](CCC(=O)O)NC(=O)[C@@H](NC(=O)[C@H](C)NC(=O)[C@H](Cc2c[nH]c3ccccc23)NC(=O)[C@H](CC(C)C)NC(=O)[C@H](C)NC(=O)[C@@H]2CCCN2C(=O)[C@H](CC(=O)O)NC(=O)[C@H](C)N)CSCC(=O)O[C@H]2CC[C@H](CC2)OC(=O)CSC[C@@H](C(=O)N[C@@H](CCC(=O)O)C(=O)N[C@H](C(=O)N[C@@H](CCC(N)=O)C(N)=O)[C@@H](C)O)NC1=O [Compound 45] (H-ADPALWACEHAALICETQ-NH2; linker 8-15 via X4; N-terminus and C-terminus assumed) | 1.03 | 

The next lines start with the values.

chromatographic logD [1] | EC50 [2] [µM] | SMILES
0.61 | 5.17 | CC(C)C[C@@H]1NC(=O)[C@H](C)NC(=O)[C@H](C)NC(=O)[C@H](Cc2c[nH]c3ccccc23)NC(=O)[C@H](CCC(=O)O)NC(=O)[C@@H](NC(=O)[C@H](CCCNC(=N)N)NC(=O)[C@H](Cc2c[nH]cn2)NC(=O)[C@@H](NC(=O)[C@H](C)NC(=O)[C@@H]2CCCN2C(=O)[C@H](CC(=O)O)NC(=O)[C@H](C)N)[C@@H](C)O)CSCC(=O)Nc2cc(F)c(cc2F)NC(=O)CSC[C@@H](C(=O)N[C@@H](CCC(=O)O)C(=O)N[C@@H](CC(C)C)C(=O)N[C@H](C(N)=O)C(C)C)NC(=O)[C@H](Cc2c[nH]cn2)NC1=O [Compound 32]
0.73 |  | CC[C@H](C)[C@@H]1NC(=O)[C@H](CC(C)C)NC(=O)[C@H](C)NC(=O)[C@H](C)NC(=O)[C@H](Cc2c[nH]cn2)NC(=O)[C@H](CCC(=O)O)NC(=O)[C@@H](NC(=O)[C@H](C)NC(=O)[C@H](Cc2c[nH]c3ccccc23)NC(=O)[C@H](CC(C)C)NC(=O)[C@H](C)NC(=O)[C@@H]2CCCN2C(=O)[C@H](CC(=O)O)NC(=O)[C@H](C)N)CSCC(=O)N(C)c2ccc(cc2)N(C)C(=O)CSC[C@@H](C(=O)N[C@@H](CCC(=O)O)C(=O)N[C@H](C(=O)N[C@@H](CCC(N)=O)C(N)=O)[C@@H](C)O)NC1=O [Compound 40] (H-ADPALWACEHAALICETQ-NH2; linker 8-15 via X5; N-terminus and C-terminus assumed)
0.73 |  | CC[C@H](C)[C@@H]1NC(=O)[C@H](CC(C)C)NC(=O)[C@H](C)NC(=O)[C@H](C)NC(=O)[C@H](Cc2c[nH]cn2)NC(=O)[C@H](CCC(=O)O)NC(=O)[C@@H](NC(=O)[C@H](C)NC(=O)[C@H](Cc2c[nH]c3ccccc23)NC(=O)[C@H](CC(C)C)NC(=O)[C@H](C)NC(=O)[C@@H]2CCCN2C(=O)[C@H](CC(=O)O)NC(=O)[C@H](C)N)CSCC(=O)Nc2cc(F)c(cc2F)NC(=O)CSC[C@@H](C(=O)N[C@@H](CCC(=O)O)C(=O)N[C@H](C(=O)N[C@@H](CCC(N)=O)C(N)=O)[C@@H](C)O)NC1=O [Compound 41] (H-ADPALWACEHAALICETQ-NH2; linker 8-15 via X7; N-terminus and C-terminus assumed)
0.75 |  | CC[C@H](C)[C@@H]1NC(=O)[C@H](CC(C)C)NC(=O)[C@H](C)NC(=O)[C@H](C)NC(=O)[C@H](Cc2c[nH]cn2)NC(=O)[C@H](CCC(=O)O)NC(=O)[C@@H](NC(=O)[C@H](C)NC(=O)[C@H](Cc2c[nH]c3ccccc23)NC(=O)[C@H](CC(C)C)NC(=O)[C@H](C)NC(=O)[C@@H]2CCCN2C(=O)[C@H](CC(=O)O)NC(=O)[C@H](C)N)CSCC(=O)Nc2cc(OC)c(cc2OC)NC(=O)CSC[C@@H](C(=O)N[C@@H](CCC(=O)O)C(=O)N[C@H](C(=O)N[C@@H](CCC(N)=O)C(N)=O)[C@@H](C)O)NC1=O [Compound 43] (H-ADPALWACEHAALICETQ-NH2; linker 8-15 via X8; N-terminus and C-terminus assumed)
0.7 |  | CC[C@H](C)[C@@H]1NC(=O)[C@H](CC(C)C)NC(=O)[C@H](C)NC(=O)[C@H](C)NC(=O)[C@H](Cc2c[nH]cn2)NC(=O)[C@H](CCC(=O)O)NC(=O)[C@@H](NC(=O)[C@H](C)NC(=O)[C@H](Cc2c[nH]c3ccccc23)NC(=O)[C@H](CC(C)C)NC(=O)[C@H](C)NC(=O)[C@@H]2CCCN2C(=O)[C@H](CC(=O)O)NC(=O)[C@H](C)N)CSCC(=O)Nc2ccccc2NC(=O)CSC[C@@H](C(=O)N[C@@H](CCC(=O)O)C(=O)N[C@H](C(=O)N[C@@H](CCC(N)=O)C(N)=O)[C@@H](C)O)NC1=O [Compound 44] (H-ADPALWACEHAALICETQ-NH2; linker 8-15 via X3; N-terminus and C-terminus assumed)
0.94 |  | CC[C@H](C)[C@@H]1NC(=O)[C@H](CC(C)C)NC(=O)[C@H](C)NC(=O)[C@H](C)NC(=O)[C@H](Cc2c[nH]cn2)NC(=O)[C@H](CCC(=O)O)NC(=O)[C@@H](NC(=O)[C@H](C)NC(=O)[C@H](Cc2c[nH]c3ccccc23)NC(=O)[C@H](CC(C)C)NC(=O)[C@H](C)NC(=O)[C@@H]2CCCN2C(=O)[C@H](CC(=O)O)NC(=O)[C@H](C)N)CSCC(=O)O[C@@H]2CCC[C@@H](C2)OC(=O)CSC[C@@H](C(=O)N[C@@H](CCC(=O)O)C(=O)N[C@H](C(=O)N[C@@H](CCC(N)=O)C(N)=O)[C@@H](C)O)NC1=O [Compound 46] (H-ADPALWACEHAALICETQ-NH2; linker 8-15 via X9; N-terminus and C-terminus assumed)
